# According to US8658638B2, “Mineralocorticoid receptor antagonist and methods of use” (priority 2009, dated 2014):
# Legend:
# [1] = molecular target: T1, human AR (androgen receptor) (Homo sapiens, UniProt P10275); assay: Steroid nuclear hormone receptor binding assay, AR; details: [3H]-methyltrienolone, HEK293 lysate overexpressing human AR
# T1 construct: expressed in transfected cells; host or cells: HEK293 (293-AR lysate)
# T1 sequence (P10275 1-920): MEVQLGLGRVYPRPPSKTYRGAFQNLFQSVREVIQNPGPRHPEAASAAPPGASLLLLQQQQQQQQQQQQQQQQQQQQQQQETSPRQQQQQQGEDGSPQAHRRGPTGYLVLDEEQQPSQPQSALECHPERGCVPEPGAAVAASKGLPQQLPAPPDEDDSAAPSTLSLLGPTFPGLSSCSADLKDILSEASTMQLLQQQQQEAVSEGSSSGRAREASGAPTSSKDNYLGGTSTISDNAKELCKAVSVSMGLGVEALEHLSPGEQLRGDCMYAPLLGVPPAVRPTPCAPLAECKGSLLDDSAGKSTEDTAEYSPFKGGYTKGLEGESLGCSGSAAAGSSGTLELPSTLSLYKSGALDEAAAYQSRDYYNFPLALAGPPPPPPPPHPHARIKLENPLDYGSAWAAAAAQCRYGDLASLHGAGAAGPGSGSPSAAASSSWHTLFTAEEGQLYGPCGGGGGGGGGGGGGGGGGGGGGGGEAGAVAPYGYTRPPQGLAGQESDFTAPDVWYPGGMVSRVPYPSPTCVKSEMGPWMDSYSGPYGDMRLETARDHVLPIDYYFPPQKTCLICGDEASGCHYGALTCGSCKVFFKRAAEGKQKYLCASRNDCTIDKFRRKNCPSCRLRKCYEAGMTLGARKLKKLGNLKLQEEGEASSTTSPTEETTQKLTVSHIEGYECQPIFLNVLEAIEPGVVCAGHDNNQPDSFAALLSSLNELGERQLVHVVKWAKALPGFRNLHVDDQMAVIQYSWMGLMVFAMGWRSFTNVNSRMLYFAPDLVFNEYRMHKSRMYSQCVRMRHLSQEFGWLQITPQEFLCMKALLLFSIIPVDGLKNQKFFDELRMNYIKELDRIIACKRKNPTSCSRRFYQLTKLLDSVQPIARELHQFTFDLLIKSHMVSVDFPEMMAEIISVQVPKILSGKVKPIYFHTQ
# Description: (§1) Cell lysates from human embryonic kidney HEK293 cells overexpressing human MR (mineralocorticoid receptor), GR (glucocorticoid receptor), AR (androgen receptor), or PR (progesterone receptor) are used for receptor-ligand competition binding assays to determine Ki values.
# (§2) Briefly, steroid receptor competition binding assays are run in a buffer containing 20 mM HEPES buffer (pH=7.6), 0.2 mM EDTA, 75 mM NaCl, 1.5 mM MgCl2, 20% glycerol, 20 mM sodium molybdate, 0.2 mM DTT (dithiothreitol), 20 μg/mL aprotinin and 20 μg/mL leupeptin (assay buffer). Typically, steroid receptor binding assays include radio-labeled ligands, such as 0.25 nM [^3H]-aldosterone for MR binding, 0.7 nM [^3H]-dexamethasone for GR binding, 0.36 nM [^3H]-methyltrienolone for AR binding, and 0.29 nM [^3H]-methyltrienolone for PR binding, and either 20 μg 293-MR lysate, 20 μg 293-GR lysate, 22 μg 293-AR lysate, or 40 μg 293-PR lysate per well. Assays are typically run in 96-well format. Competing test compounds are added at various concentrations ranging from about 0.01 nM to 10 μM. Non-specific binding is determined in the presence of 500 nM aldosterone for MR binding, 500 nM dexamethasone for GR binding, or 500 nM methyltrienolone for AR and PR binding. […] After an incubation of 2 hours, plates are read in a Wallac Microbeta counter. […]
# [2] = molecular target: T2, human GR (glucocorticoid receptor) (Homo sapiens, UniProt P04150); assay: Steroid nuclear hormone receptor binding assay, GR; details: [3H]-dexamethasone, HEK293 lysate overexpressing human GR
# T2 construct: expressed in transfected cells; host or cells: HEK293 (293-GR lysate)
# T2 sequence (P04150 1-777): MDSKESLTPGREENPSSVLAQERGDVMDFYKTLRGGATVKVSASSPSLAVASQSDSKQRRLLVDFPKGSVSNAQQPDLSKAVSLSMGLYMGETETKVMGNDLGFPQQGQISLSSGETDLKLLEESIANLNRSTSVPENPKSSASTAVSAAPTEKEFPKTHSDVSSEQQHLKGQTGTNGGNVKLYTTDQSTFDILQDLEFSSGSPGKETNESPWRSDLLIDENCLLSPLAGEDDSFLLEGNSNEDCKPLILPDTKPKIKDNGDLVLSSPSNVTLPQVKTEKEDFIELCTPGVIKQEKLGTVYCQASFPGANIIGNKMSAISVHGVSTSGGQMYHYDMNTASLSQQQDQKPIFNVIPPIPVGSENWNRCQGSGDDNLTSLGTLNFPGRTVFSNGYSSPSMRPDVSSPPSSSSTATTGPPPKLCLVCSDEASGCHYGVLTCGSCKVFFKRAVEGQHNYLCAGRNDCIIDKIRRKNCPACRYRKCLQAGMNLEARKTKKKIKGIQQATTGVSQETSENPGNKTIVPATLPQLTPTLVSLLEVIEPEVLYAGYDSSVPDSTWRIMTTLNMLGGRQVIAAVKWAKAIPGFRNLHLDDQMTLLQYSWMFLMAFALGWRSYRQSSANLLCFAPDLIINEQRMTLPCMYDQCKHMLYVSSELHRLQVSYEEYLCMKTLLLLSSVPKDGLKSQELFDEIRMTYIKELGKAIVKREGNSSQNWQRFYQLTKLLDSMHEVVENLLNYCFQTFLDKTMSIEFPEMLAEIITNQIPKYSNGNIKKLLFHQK
# Description: as §1, §2
compound,measurement,setting,value
"O=c1[nH]c2cc(/C=C3\c4ccccc4COc4cc(F)ccc43)ccc2n1[C@@H]1C[C@@H]2COCCN2C1 [Compound (I), 5-((E)-(3-fluorodibenzo[b,e]oxepin-11(6H)-ylidene)methyl)-1-((7R,8aR)-hexahydro-1H-pyrrolo[2,1-c][1,4]oxazin-7-yl)-1H-benzo[d]imidazol-2(3H)-one]",Ki,[1],~1170 nM
same,Ki,[2],~669 nM
